Laboratory results taken from ChEMBL document CHEMBL4507327 (2021).
Calls of active or inactive are those of the source. The rule behind the calls is not given here.

How the values were obtained:
[1] = molecular target: Alpha-1B adrenergic receptor (Homo sapiens) (UniProt P35368); experiment: Adrenergic alpha1B Eurofins-Panlabs radioligand binding assay; set-up: ligand concentration 0.2 nM; settings: Compound concentration 10.0 uM
Ephrin type-B receptor 2 = Ephrin type-B receptor 2 (Homo sapiens, UniProt P29323); experiment: EphB2(EPB2LGY1) Takeda global kinase panel
[2] = molecular target: Casein kinase I isoform gamma-2 (Homo sapiens, UniProt P78368); experiment: CK1gamma2(C1G2LGI1) Takeda global kinase panel
[3] = molecular target: Tyrosine-protein kinase FRK (Homo sapiens, UniProt P42685); experiment: FRK(FRK1LGF1) Takeda global kinase panel
TGF-beta receptor type-2 = TGF-beta receptor type-2 (Homo sapiens, UniProt P37173); experiment: TGFbetaR2(TGF2LGY1) Takeda global kinase panel
Ephrin type-B receptor 3 = Ephrin type-B receptor 3 (Homo sapiens, UniProt P54753); experiment: EphB3(EPB3LGRJ) Takeda global kinase panel
[4] = molecular target: Maternal embryonic leucine zipper kinase (Homo sapiens, UniProt Q14680); experiment: MELK(MELKLGF1) Takeda global kinase panel
[5] = molecular target: Serine/threonine-protein kinase pim-1 (Homo sapiens, UniProt P11309); experiment: Pim1(PIM1LGP1) Takeda global kinase panel
[6] = molecular target: Substance-P receptor (Homo sapiens) (UniProt P25103); experiment: Inhibition of Tachykinin NK1 at 10 µM in the Eurofins-Panlabs radioligand binding assay (Eurofins_assay_255520); set-up: ligand concentration 0.8 nM; settings: Compound concentration 10.0 uM
[7] = molecular target: Serine/threonine-protein kinase N1 (Homo sapiens, UniProt Q16512); experiment: PKN1 [PRK1(PKN1LGY1)] Takeda global kinase panel
Myosin-IIIb = Myosin-IIIb (Homo sapiens, UniProt Q8WXR4); experiment: MYO3B(MY3BLGA1) Takeda global kinase panel
[8] = molecular target: PAS domain-containing serine/threonine-protein kinase (Homo sapiens, UniProt Q96RG2); experiment: PASK(PASKPHY1) Takeda global kinase panel
[9] = molecular target: Sodium-dependent noradrenaline transporter (Homo sapiens) (UniProt P23975); settings: Compound concentration 10.0 uM
[10] = molecular target: G protein-coupled receptor kinase 3 (Homo sapiens, UniProt P35626); experiment: BARK2 [GRK3(ADR2LGG5)] Takeda global kinase panel
[11] = molecular target: Tyrosine-protein kinase Fes/Fps (Homo sapiens, UniProt P07332); experiment: Fes(FES1LHY1) Takeda global kinase panel
[12] = molecular target: Mitogen-activated protein kinase 14 (Homo sapiens, UniProt Q16539); experiment: p38alpha(MP14LGI1) Takeda global kinase panel
SRSF protein kinase 2 = SRSF protein kinase 2 (Homo sapiens, UniProt P78362); experiment: SRPK2(SRP2IGRL) Takeda global kinase panel
[13] = molecular target: Endothelin receptor type B (Homo sapiens) (UniProt P24530); settings: Compound concentration 10.0 uM
[14] = molecular target: Bromodomain testis-specific protein (Homo sapiens, UniProt Q58F21); experiment: BRDT(BRDTLGRC) Takeda global kinase panel
[15] = molecular target: Receptor-interacting serine/threonine-protein kinase 1 (Mus musculus, UniProt Q60855); experiment: TR-FRET (mouse RIPK1)
[16] = molecular target: Mitogen-activated protein kinase 15 (Homo sapiens, UniProt Q8TD08); experiment: ERK7(MP15LGY1) Takeda global kinase panel
Activin receptor type-1 = Activin receptor type-1 (Homo sapiens, UniProt Q04771); experiment: ALK2(ACV1LGF1) Takeda global kinase panel
eIF-2-alpha kinase GCN2 = eIF-2-alpha kinase GCN2 (Homo sapiens, UniProt Q9P2K8); experiment: GCN2(EIK4PHK1) Takeda global kinase panel
[17] = molecular target: Dual specificity tyrosine-phosphorylation-regulated kinase 4 (Homo sapiens, UniProt Q9NR20); experiment: DYRK4(DYR4LHY1) Takeda global kinase panel
Rattus norvegicus = species: Rattus norvegicus; experiment: Inhibition of Thyroid Hormone at 10 µM in the Eurofins-Panlabs radioligand binding assay (Eurofins_assay_285900); assay type: protein assay; settings: Compound concentration 10.0 uM
[18] = molecular target: Mitogen-activated protein kinase kinase kinase 20 (Homo sapiens, UniProt Q9NYL2); experiment: ZAK(ZAK1LGY1) Takeda global kinase panel
[19] = molecular target: Serine/threonine-protein kinase 32C (Homo sapiens, UniProt Q86UX6); experiment: YANK3(S32CLGI1) Takeda global kinase panel
Aurora kinase A = Aurora kinase A (Homo sapiens, UniProt O14965); experiment: AurA [Aur2(AURALGF1)] Takeda global kinase panel
[20] = molecular target: Mitogen-activated protein kinase kinase kinase 11 (Homo sapiens, UniProt Q16584); experiment: MLK3(M311LGF1) Takeda global kinase panel
[21] = molecular target: Protein kinase C iota type (Homo sapiens, UniProt P41743); experiment: PKCiota(PRKILGRD) Takeda global kinase panel
[22] = molecular target: Rho-associated protein kinase 2 (Homo sapiens, UniProt O75116); experiment: ROCK2(ROC2LGG1) Takeda global kinase panel
[23] = molecular target: Myosin light chain kinase family member 4 (Homo sapiens, UniProt Q86YV6); experiment: SgK085(SG85LGY1) Takeda global kinase panel
[24] = molecular target: Histamine H3 receptor (Homo sapiens) (UniProt Q9Y5N1); settings: Compound concentration 10.0 uM
[25] = molecular target: Delta-type opioid receptor (Homo sapiens) (UniProt P41143); settings: Compound concentration 10.0 uM
[26] = molecular target: Serine/threonine-protein kinase VRK2 (Homo sapiens, UniProt Q86Y07); experiment: VRK2(VRK2LGRI) Takeda global kinase panel
[27] = molecular target: Protein kinase C epsilon type (Homo sapiens, UniProt Q02156); experiment: PKCepsilon(PRKELHY1) Takeda global kinase panel
LIM domain kinase 2 = LIM domain kinase 2 (Homo sapiens, UniProt P53671); experiment: LIMK2(LIM2LGV1) Takeda global kinase panel
[28] = molecular target: Serine/threonine-protein kinase 24 (Homo sapiens, UniProt Q9Y6E0); experiment: MST3(ST24LGC1) Takeda global kinase panel
[29] = molecular target: ALK tyrosine kinase receptor (Homo sapiens, UniProt Q9UM73); experiment: ALK(ALK1LGY1) Takeda global kinase panel
[30] = molecular target: Serine/threonine-protein kinase H1 (Homo sapiens, UniProt P11801); experiment: PSKH1(PSH1LGRH) Takeda global kinase panel
SRSF protein kinase 1 = SRSF protein kinase 1 (Homo sapiens, UniProt Q96SB4); experiment: SRPK1(SRP1IHRL) Takeda global kinase panel
[31] = molecular target: Interleukin-1 receptor type 1 (Homo sapiens) (UniProt P14778); experiment: Interleukin IL-1 R1 Eurofins-Panlabs radioligand binding assay; set-up: ligand concentration 0.1 nM; settings: Compound concentration 10.0 uM
[32] = molecular target: Dual specificity protein kinase CLK2 (Homo sapiens, UniProt P49760); experiment: CLK2(CLK2LGF1) Takeda global kinase panel
[33] = molecular target: Gamma-aminobutyric acid type B receptor subunit 1 (Homo sapiens) (UniProt Q9UBS5); experiment: Inhibition of GABAB1A at compound concentration of 10.0 uM in the Eurofins-Panlabs radioligand binding assay (Eurofins_assay_228610); set-up: ligand concentration 4 nM; settings: Compound concentration 10.0 uM
[34] = molecular target: Serine/threonine-protein kinase MRCK alpha (Homo sapiens, UniProt Q5VT25); experiment: MRCKalpha(CD4ALGY1) Takeda global kinase panel
[35] = molecular target: Serine/threonine-protein kinase Nek9 (Homo sapiens, UniProt Q8TD19); experiment: Nek9(NEK9LGF1) Takeda global kinase panel

Aurora kinase A, sequence (O14965 whole entry): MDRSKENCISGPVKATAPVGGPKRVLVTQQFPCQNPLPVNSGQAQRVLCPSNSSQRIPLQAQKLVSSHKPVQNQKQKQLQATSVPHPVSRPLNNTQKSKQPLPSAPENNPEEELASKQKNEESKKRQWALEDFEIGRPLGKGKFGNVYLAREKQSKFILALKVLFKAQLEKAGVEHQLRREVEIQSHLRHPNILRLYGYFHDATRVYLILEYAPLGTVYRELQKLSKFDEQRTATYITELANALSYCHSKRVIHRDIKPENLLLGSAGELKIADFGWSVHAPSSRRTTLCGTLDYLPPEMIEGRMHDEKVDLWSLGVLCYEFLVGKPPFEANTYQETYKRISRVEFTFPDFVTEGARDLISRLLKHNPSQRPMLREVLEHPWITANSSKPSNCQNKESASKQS
Interleukin-1 receptor type 1 (Homo sapiens), sequence (P14778 whole entry): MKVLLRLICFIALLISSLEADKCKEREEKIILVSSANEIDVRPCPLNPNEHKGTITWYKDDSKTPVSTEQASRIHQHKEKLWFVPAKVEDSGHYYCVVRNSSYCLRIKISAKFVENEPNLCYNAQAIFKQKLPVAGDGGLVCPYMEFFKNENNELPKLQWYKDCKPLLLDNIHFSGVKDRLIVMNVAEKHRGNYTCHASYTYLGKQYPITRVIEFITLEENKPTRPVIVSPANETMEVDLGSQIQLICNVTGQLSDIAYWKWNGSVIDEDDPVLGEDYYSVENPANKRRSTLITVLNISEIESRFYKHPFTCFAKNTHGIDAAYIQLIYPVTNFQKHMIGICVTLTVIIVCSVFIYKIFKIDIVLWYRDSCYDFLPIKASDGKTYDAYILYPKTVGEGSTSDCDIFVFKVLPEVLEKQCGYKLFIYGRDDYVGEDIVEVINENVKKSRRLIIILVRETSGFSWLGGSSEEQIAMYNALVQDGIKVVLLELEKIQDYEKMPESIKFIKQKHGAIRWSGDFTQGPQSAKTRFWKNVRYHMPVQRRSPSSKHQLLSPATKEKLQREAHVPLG
PAS domain-containing serine/threonine-protein kinase, sequence (Q96RG2 whole entry, the tested form may be a part): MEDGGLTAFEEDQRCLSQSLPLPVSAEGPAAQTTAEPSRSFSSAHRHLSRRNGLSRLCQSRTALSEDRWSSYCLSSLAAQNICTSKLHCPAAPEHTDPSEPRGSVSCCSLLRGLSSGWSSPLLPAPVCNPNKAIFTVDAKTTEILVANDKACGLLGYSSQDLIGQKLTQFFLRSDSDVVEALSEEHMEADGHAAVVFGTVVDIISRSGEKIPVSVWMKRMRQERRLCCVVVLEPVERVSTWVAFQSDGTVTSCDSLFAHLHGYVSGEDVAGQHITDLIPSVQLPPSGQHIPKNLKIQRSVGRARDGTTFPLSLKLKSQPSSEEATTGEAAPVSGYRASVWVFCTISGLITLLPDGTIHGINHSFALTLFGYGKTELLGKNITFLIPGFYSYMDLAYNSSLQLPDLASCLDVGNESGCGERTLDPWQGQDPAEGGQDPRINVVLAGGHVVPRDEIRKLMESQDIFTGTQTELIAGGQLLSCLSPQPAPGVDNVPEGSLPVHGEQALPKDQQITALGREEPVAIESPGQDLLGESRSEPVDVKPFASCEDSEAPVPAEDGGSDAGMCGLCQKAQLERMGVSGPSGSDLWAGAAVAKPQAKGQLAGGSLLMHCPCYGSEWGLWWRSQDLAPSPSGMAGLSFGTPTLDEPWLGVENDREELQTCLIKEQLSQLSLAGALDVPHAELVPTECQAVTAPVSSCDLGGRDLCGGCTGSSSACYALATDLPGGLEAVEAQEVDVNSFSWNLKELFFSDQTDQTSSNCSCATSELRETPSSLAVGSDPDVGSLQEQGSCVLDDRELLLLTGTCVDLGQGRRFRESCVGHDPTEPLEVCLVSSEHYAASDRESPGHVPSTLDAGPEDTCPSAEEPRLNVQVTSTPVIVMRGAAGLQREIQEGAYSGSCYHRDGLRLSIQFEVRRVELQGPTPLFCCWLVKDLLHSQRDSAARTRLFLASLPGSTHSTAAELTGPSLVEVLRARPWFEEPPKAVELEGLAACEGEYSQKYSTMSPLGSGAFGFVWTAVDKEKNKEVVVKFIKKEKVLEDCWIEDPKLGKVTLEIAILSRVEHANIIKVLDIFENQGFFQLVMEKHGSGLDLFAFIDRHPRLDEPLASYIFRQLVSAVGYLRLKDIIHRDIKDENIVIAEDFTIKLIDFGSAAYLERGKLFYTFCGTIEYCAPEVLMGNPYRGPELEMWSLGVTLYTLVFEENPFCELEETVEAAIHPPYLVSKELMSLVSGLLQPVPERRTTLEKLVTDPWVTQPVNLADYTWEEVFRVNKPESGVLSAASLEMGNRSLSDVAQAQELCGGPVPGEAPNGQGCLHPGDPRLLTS
Serine/threonine-protein kinase MRCK alpha, sequence (Q5VT25 whole entry): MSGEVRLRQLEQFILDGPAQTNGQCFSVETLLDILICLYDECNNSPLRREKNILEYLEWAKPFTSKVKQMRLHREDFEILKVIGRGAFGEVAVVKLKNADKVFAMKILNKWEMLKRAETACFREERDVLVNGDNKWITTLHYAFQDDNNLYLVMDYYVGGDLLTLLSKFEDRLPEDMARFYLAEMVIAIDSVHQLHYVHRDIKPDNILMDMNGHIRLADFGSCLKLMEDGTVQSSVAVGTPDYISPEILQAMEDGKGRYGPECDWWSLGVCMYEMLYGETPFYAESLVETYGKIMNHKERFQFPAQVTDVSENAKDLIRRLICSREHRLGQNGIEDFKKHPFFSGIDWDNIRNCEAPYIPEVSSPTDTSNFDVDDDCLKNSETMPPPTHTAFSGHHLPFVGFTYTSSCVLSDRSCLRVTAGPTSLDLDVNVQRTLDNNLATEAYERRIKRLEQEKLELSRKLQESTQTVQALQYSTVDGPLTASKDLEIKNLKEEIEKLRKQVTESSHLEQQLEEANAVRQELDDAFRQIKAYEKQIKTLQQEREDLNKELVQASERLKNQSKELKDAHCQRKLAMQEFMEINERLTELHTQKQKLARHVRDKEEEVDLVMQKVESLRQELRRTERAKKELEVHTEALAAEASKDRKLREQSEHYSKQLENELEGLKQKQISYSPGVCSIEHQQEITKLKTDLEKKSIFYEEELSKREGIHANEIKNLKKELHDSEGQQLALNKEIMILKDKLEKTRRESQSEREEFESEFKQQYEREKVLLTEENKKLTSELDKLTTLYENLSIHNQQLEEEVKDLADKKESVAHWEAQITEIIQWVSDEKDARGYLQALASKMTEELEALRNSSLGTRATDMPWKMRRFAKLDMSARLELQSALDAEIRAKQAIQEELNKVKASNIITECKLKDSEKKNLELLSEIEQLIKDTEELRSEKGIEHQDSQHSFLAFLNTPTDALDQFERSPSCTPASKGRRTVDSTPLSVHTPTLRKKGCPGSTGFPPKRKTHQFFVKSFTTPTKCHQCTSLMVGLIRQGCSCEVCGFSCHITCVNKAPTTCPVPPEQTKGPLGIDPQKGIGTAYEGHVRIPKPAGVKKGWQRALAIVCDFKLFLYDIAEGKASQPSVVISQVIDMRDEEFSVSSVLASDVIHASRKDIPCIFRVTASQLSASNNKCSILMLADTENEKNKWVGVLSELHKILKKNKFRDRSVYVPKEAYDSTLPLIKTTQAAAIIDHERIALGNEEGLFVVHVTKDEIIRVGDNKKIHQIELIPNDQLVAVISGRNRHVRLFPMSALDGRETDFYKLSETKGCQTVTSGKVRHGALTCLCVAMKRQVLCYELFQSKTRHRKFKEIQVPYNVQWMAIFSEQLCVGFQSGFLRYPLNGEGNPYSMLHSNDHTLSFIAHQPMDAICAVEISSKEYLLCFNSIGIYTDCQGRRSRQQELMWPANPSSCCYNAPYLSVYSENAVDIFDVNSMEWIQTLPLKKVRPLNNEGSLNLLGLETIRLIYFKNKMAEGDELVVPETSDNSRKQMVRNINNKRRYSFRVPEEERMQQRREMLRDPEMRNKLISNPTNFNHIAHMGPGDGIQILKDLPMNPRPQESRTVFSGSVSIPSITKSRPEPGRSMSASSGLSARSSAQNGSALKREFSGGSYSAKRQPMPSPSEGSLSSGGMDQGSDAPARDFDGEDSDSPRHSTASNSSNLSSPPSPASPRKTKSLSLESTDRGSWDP
Casein kinase I isoform gamma-2, sequence (P78368 whole entry, canonical isoform): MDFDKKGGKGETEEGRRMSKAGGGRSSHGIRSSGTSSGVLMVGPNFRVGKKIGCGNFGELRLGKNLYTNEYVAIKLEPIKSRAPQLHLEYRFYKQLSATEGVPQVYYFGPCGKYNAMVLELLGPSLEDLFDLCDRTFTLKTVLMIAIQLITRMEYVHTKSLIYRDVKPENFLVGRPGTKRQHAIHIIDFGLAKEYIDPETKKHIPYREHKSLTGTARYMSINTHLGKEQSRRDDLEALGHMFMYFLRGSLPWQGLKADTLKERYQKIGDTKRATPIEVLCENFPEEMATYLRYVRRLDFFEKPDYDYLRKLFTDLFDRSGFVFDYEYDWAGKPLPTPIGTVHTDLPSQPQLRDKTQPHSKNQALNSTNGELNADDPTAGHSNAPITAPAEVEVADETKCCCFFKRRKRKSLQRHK
TGF-beta receptor type-2, sequence (P37173 whole entry): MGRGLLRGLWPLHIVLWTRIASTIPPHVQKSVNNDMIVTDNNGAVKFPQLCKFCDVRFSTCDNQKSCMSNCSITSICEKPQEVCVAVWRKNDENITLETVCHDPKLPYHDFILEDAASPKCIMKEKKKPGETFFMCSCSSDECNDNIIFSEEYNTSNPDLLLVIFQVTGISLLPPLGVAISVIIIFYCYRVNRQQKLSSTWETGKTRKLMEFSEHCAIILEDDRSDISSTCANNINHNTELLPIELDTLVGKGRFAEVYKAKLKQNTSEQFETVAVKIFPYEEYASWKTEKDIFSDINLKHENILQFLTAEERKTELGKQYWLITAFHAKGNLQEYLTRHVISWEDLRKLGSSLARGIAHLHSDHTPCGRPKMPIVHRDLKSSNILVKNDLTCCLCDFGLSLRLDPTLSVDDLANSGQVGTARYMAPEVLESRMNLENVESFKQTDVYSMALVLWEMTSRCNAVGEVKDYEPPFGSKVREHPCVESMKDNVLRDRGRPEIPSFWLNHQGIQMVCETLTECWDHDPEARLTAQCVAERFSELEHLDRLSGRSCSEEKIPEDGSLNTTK

## CN1C(=O)[C@@H](N2CCc3cn(Cc4ccccc4)nc3C2=O)COc2ccccc21 [TP-030-1]
[1]
  inhibition: 2%
Ephrin type-B receptor 2
  IC50: 1000 nM
[2]
  IC50: 1000 nM
[3]
  IC50: 1000 nM
TGF-beta receptor type-2
  IC50: 1000 nM
Ephrin type-B receptor 3
  IC50: 1000 nM
[4]
  IC50: 1000 nM
[5]
  IC50: 1000 nM
[6]
  inhibition: 29%
[7]
  IC50: 1000 nM
Myosin-IIIb
  IC50: 1000 nM
[8]
  IC50: 1000 nM
[9]
  inhibition: 15%
[10]
  IC50: 1000 nM
[11]
  IC50: 1000 nM
[12]
  IC50: 1000 nM
SRSF protein kinase 2
  IC50: 1000 nM
[13]
  inhibition: 0%
[14]
  IC50: 1000 nM
[15]
  IC50: 4200 nM (active)
[16]
  IC50: 1000 nM
Activin receptor type-1
  IC50: 1000 nM
eIF-2-alpha kinase GCN2
  IC50: 1000 nM
[17]
  IC50: 1000 nM
Rattus norvegicus
  inhibition: 24%
[18]
  IC50: 1000 nM
[19]
  IC50: 1000 nM
Aurora kinase A
  IC50: 1000 nM
[20]
  IC50: 1000 nM
[21]
  IC50: 1000 nM
[22]
  IC50: 1000 nM
[23]
  IC50: 1000 nM
[24]
  inhibition: 4%
[25]
  inhibition: 3%
[26]
  IC50: 1000 nM
[27]
  IC50: 1000 nM
LIM domain kinase 2
  IC50: 1000 nM
[28]
  IC50: 1000 nM
[29]
  IC50: 1000 nM
[30]
  IC50: 1000 nM
SRSF protein kinase 1
  IC50: 1000 nM
[31]
  inhibition: -7%
[32]
  IC50: 1000 nM
[33]
  inhibition: 0%
[34]
  IC50: 1000 nM
[35]
  IC50: 1000 nM

## CN1C(=O)[C@@H](N2CCc3cn(CC4CCS(=O)(=O)CC4)nc3C2=O)COc2ccccc21 [TP-030n]
[1]
  inhibition: 1%
Ephrin type-B receptor 2
  IC50: 1000 nM
[2]
  IC50: 1000 nM
[3]
  IC50: 1000 nM
TGF-beta receptor type-2
  IC50: 1000 nM
Ephrin type-B receptor 3
  IC50: 1000 nM
[4]
  IC50: 1000 nM
[5]
  IC50: 1000 nM
[6]
  inhibition: 14%
[7]
  IC50: 1000 nM
Myosin-IIIb
  IC50: 1000 nM
[8]
  IC50: 1000 nM
[9]
  inhibition: 3%
[10]
  IC50: 1000 nM
[11]
  IC50: 1000 nM
[12]
  IC50: 1000 nM
SRSF protein kinase 2
  IC50: 1000 nM
[13]
  inhibition: -3%
[14]
  IC50: 1000 nM
[15]
  IC50: > 10000 nM (not active)
[16]
  IC50: 1000 nM
Activin receptor type-1
  IC50: 1000 nM
eIF-2-alpha kinase GCN2
  IC50: 1000 nM
[17]
  IC50: 1000 nM
Rattus norvegicus
  inhibition: 21%
[18]
  IC50: 1000 nM
[19]
  IC50: 1000 nM
Aurora kinase A
  IC50: 1000 nM
[20]
  IC50: 1000 nM
[21]
  IC50: 1000 nM
[22]
  IC50: 1000 nM
[23]
  IC50: 1000 nM
[24]
  inhibition: -5%
[25]
  inhibition: -8%
[26]
  IC50: 1000 nM
[27]
  IC50: 1000 nM
LIM domain kinase 2
  IC50: 1000 nM
[28]
  IC50: 1000 nM
[29]
  IC50: 1000 nM
[30]
  IC50: 1000 nM
SRSF protein kinase 1
  IC50: 1000 nM
[31]
  inhibition: -9%
[32]
  IC50: 1000 nM
[33]
  inhibition: -6%
[34]
  IC50: 1000 nM
[35]
  IC50: 1000 nM
